Assay results reported in ChEMBL document CHEMBL6096738, “Optimization of Single Relaxin B-Chain Peptide Leads to the Identification of R2R01, a Potent, Long-Acting RXFP1 Agonist for Cardiovascular and Renal Diseases” (J Med Chem, 2025).
Starred links: 1 amine or outer side, 2 acyl side, 3 side chain; linkers in the order of their positions; H or OH if unused. Non-standard residues stand in square brackets, D forms with d. Residues, ends and D or L forms follow the SMILES beside them. Groups on a side chain read outwards from the residue. *: point of attachment. PEG12 = NCCOCCOCCOCCOCCOCCOCCOCCOCCOCCOCCOCCOCCC(=O)O; γGlu = O=C(O)[C@H](CCC(=O)[*:2])N[*:1]; Stearoyl = CCCCCCCCCCCCCCCCCC(=O)*; Nle = CCCC[C@H](N)C(=O)O; Aib = CC(C)(N)C(=O)O

Experiments:
[1] = Induction of immune response in human CD4+ T cells assessed as increase in auto reactive T cells at 3 uM preincubated with monocyte-derived immature dendritic cells followed by T cell addition and further stimulated on day 7 and 14 with autologous dendritic cells and measured after 5 days post last stimulation by IFNgamma-Elispot analysis; format: toxicity, cell-based; settings: 120 h
[2] = molecular target: T1, Relaxin receptor 1 (Homo sapiens, UniProt Q9HBX9); experiment: Agonist activity at human RXFP1 expressed in human OVCAR-5 cells assessed as intracellular cAMP accumulation incubated for 30 mins by HTRF assay; format: functional, cell-based
T1 sequence (Q9HBX9 whole entry): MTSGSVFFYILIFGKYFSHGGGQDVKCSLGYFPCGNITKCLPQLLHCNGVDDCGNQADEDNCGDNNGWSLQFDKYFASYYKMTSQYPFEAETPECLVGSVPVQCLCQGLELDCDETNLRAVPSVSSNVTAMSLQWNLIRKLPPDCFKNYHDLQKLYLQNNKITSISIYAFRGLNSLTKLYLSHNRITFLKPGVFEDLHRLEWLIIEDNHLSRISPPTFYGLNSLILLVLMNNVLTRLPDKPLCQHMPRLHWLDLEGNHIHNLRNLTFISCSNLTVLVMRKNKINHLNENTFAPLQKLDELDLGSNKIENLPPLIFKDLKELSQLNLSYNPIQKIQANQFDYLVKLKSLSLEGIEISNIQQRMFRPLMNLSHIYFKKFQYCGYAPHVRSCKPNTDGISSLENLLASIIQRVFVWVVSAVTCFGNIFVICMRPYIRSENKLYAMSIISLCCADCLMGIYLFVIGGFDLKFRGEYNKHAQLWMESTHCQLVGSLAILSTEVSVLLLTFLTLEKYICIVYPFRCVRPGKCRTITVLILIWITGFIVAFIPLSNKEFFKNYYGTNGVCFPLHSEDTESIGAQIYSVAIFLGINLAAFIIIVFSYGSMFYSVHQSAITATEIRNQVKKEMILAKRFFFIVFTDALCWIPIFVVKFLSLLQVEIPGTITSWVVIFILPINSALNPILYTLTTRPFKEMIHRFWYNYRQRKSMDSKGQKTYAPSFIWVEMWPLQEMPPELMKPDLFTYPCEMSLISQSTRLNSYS

[3] = molecular target: T2, Relaxin receptor 1 (Homo sapiens) (UniProt Q9HBX9); experiment: Agonist activity at human RXFP1 expressed in 2%HSA treated human OVCAR-5 cells assessed as intracellular cAMP accumulation by measuring maximal efficacy incubated for 30 mins with 2% HSA pretreated compound by HTRF assay relative to control; format: functional, cell-based; settings: filed as agonist
T2 sequence (whole entry): T1 sequence (Q9HBX9 whole entry)

[4] = molecular target: T2, Relaxin receptor 1 (Homo sapiens); experiment: Agonist activity at human RXFP1 expressed in human OVCAR-5 cells assessed as intracellular cAMP accumulation by measuring maximal efficacy incubated for 30 mins by HTRF assay relative to control; format: functional, cell-based; settings: filed as agonist
[5] = molecular target: T1, Relaxin receptor 1; experiment: Agonist activity at human RXFP1 expressed in 2%HSA treated human OVCAR-5 cells assessed as intracellular cAMP accumulation incubated for 30 mins with 2% HSA pretreated compound by HTRF assay; format: functional, cell-based
[6] = Half-life in male Sprague-Dawley rat at 1 mg/kg, iv measured after 198 hrs by LC-HRMS analysis; format: ADME, organism-based; settings: in vivo

SMILES | Activity [1] | EC50 [2] [nM] | Emax [3] [%] | Emax [4] [%] | EC50 [5] [nM] | half-life [6] [h]
CCCC[C@H](NC(=O)CNC(=O)[C@H](CCC(=O)O)NC(=O)C(C)(C)NC(=O)C(C)(C)NC(=O)[C@@H](NC(=O)[C@H](CCCCNC(C)=O)NC(=O)[C@H](C)NC(=O)[C@H](CCCNC(=N)N)NC(=O)[C@@H](NC(=O)[C@H](CCCCN)NC(=O)[C@H](CCC(=O)O)NC(=O)[C@H](CCCNC(=N)N)NC(=O)CNC(=O)[C@H](CCC(=O)O)NC(=O)[C@H](CC(C)C)NC(C)=O)C(C)C)[C@@H](C)CC)C(=O)N[C@@H](CO)C(=O)N[C@H](C(=O)N[C@@H](Cc1c[nH]c2ccccc12)C(=O)N[C@@H](CO)C(=O)NC(C)(C)C(=O)N[C@@H](CCCNC(=N)N)C(=O)N[C@@H](CCCCN)C(=O)N[C@@H](CCCCNC(C)=O)C(N)=O)[C@@H](C)O (Ac-LEGREKVRAK(Ac)I[Aib][Aib]EG[Nle]STWS[Aib]RKK(Ac)-NH2) | Non-toxic |  |  |  |  | 
CCCCCCCCCCCCCCCCCC(=O)N[C@@H](CCC(=O)N[C@@H](CCC(=O)N[C@@H](CCC(=O)NCCCC[C@H](NC(=O)CCOCCOCCOCCOCCOCCOCCOCCOCCOCCOCCOCCOCCNC(=O)[C@H](CCCCNC(C)=O)NC(=O)[C@H](CCCCN)NC(=O)[C@H](CCCNC(=N)N)NC(=O)C(C)(C)NC(=O)[C@H](CO)NC(=O)[C@H](Cc1c[nH]c2ccccc12)NC(=O)[C@@H](NC(=O)[C@H](CO)NC(=O)[C@H](CCCC)NC(=O)CNC(=O)[C@H](CCC(=O)O)NC(=O)C(C)(C)NC(=O)C(C)(C)NC(=O)[C@@H](NC(=O)[C@H](CCCCNC(C)=O)NC(=O)[C@H](C)NC(=O)[C@H](CCCNC(=N)N)NC(=O)[C@@H](NC(=O)[C@H](CCCCN)NC(=O)[C@H](CCC(=O)O)NC(=O)[C@H](CCCNC(=N)N)NC(=O)CNC(=O)[C@H](CCC(=O)O)NC(=O)[C@H](CC(C)C)NC(C)=O)C(C)C)[C@@H](C)CC)[C@@H](C)O)C(N)=O)C(=O)O)C(=O)O)C(=O)O (Ac-LEGREKVRAK(Ac)I[Aib][Aib]EG[Nle]STWS[Aib]RKK(Ac)[PEG12]K([γGlu-γGlu-γGlu-Stearoyl])-NH2) | Non-toxic | 0.6 | 84 | 95 | 9 | 4.3
